{"source": "paper PMC4354731", "about": "(Biochimica et biophysica acta, 2013)", "key": {"[1]": {"target": "fumarate reductase (FrdABCD), FrdB subunit (Escherichia coli, UniProt P0A8Q0+P0A8Q3+P0AC47, P0AC47:K229L)", "assay": "biochemical"}, "[2]": {"target": "fumarate reductase (FrdABCD), FrdB subunit (Escherichia coli, UniProt P0A8Q0+P0A8Q3+P0AC47, P0AC47:S204R)", "assay": "biochemical"}, "[3]": {"target": "fumarate reductase (FrdABCD), FrdB subunit (Escherichia coli, UniProt P0A8Q0+P0A8Q3+P0AC47)", "assay": "fluorescence quench titration in enriched membranes", "format": "binding"}, "[4]": {"target": "fumarate reductase (FrdABCD), FrdB subunit (Escherichia coli, UniProt P0A8Q0+P0A8Q3+P0AC47, P0AC47:K229R)", "assay": "biochemical"}, "[5]": {"target": "fumarate reductase (FrdABCD), FrdB subunit (Escherichia coli, UniProt P0A8Q0+P0A8Q3+P0AC47, P0AC47:K229E)", "assay": "biochemical"}}, "data": [{"smiles": "CCCCCCCc1cc(O)c2ccccc2[n+]1[O-]", "note": "[HOQNO, 2-n-heptyl-4-hyroxyquinoline-N-oxide]", "values": [{"measurement": "Kd", "setting": "[1]", "value": 0.11, "unit": "µM"}, {"measurement": "Kd", "setting": "[2]", "value": 0.005, "unit": "µM"}, {"measurement": "Kd", "setting": "[3]", "value": 0.005, "unit": "µM"}, {"measurement": "Kd", "setting": "[4]", "value": 0.08, "unit": "µM"}, {"measurement": "Kd", "setting": "[5]", "value": 0.11, "unit": "µM"}]}]}
